According to patent US20130225535A1, “SYNERGISTIC FUNGICIDAL COMPOSITION” (MAKHTESHIM CHEMICAL WORKS LTD., priority 2010, published 2013):

How the values were obtained:
[1] = system: DMM-resistant isolates of Pseudoperonospora cubensis; experiment: Control of DMM-resistant isolates of Pseudoperonospora cubensis on intact cucumber plants, ED90 and Wadley synergy; format: in vivo; conditions: for ED90 observed Trial 1: Trial 1, downy mildew lesions per leaf; for ED90 observed Trial 2: Trial 2, downy mildew lesions per leaf
Method: (§1) A synergistic effect exists whenever the action of an active ingredient combination is greater than the sum of the actions of the individual components. The Wadley Method is well-known method for determining whether synergy exists. In the Wadley Method, synergistic activity is determined from dose, response curves. With this method, the efficacy of the active ingredient (“a.i.”) is determined by comparing the degree of fungal attack on treated plants with that on untreated, similarly inoculated and incubated check plants. Each a.i. is generally tested at multiple (e.g., six) concentrations and dose response curves are generated. The dose response curves are used to establish the ED90 (i.e., estimated concentration required to produce 90% killing of fungi) of the individual compounds as well as of the combinations (ED90observed). The experimentally found values of the mixture at a given weight ratio are compared with the values that would have been found where only a complementary efficacy of the components was present (ED90 (A+B) expected). The ED90 (A+B) expected is generally calculated according to Wadley (Levi et al., EPPO-Bulletin 16, 1986, 651-657) or (Wadley, F. M., U.S. Dep. Agric., Agric. Res. Adm., Bur. Entomol. And Plant Quar. ET-223, 1945, 8) as follows:
(§2) wherein a and b are the weight ratios of the compounds A and B in the mixture and the indexes (A), (B) and (A+B) refer to the observed ED90values of the compounds A, B or the A+B mixture thereof. The ratio ED90 (A+B)expected/ED90 (A+B)observed expresses the level of the synergistic factor (SF).
A trial was conducted to estimate the synergistic interaction between three fungicides in controlling DMM-resistant isolates of P. cubensis, the causal agent of downy mildew in cucurbits.
Commercially available compositions of dimethomorph (Sphinx 50 SC), folpet (Folpan 80 WDG) and fosetyl-Al (Aliette 80 WDG), as well as 80 wt. %, WDG composition comprising a combination of dimethomorph, folpet and fosetyl-Al (mixed at a weight ratio of 1:5:10) were suspended in water, diluted to a series of concentrations in water, and sprayed initial run off.
Two isolates of P. cubensis were used. Intact, two-true leaf cucumber plants (n=2) were used for inoculation. Inoculation and incubation were conducted according to the description in example 1, except that sporangial concentration was adjusted to 2×103 sporangia/ml. Disease records were taken by counting the number of downy mildew lesions per leaf (n=4). Data analysis was done as described in Example 1.

Plasmopara viticola = experiment: Control of Plasmopara viticola (downy mildew) on detached grapevine leaves, ED90 by Probit analysis, synergy by Wadley method; format: in vivo; conditions: detached grape leaves, spray before inoculation, 7-10 days after inoculation
Method: as §1, §2
A trial was conducted to in order to estimate the synergistic interaction between three fungicides in controlling the oomycete, Plasmopara viticola, the downy mildew causal agent, in grapevines.
Commercially available compositions of dimethomorph (Sphinx 50 SC), folpet (Folpan 80 WDG) and fosetyl-Al (Aliette 80 WDG), as well as 80 wt. %, WDG composition comprising a combination of dimethomorph, folpet and fosetyl-Al (mixed at a weight ratio of 1:5:10) were suspended in water, diluted to a series of concentrations in water and sprayed onto the lower leaf surface of detached grape leaves to initial run off.
Two cultivars of grapevines (Vitis vinifera) were used: Carinian and Merlo, both susceptible to P. viticola. Grafted Carinian plants were grown in pots in the greenhouse whereas Merlo vines were grown in the field. Plants were regularly sprayed with appropriate fungicides to protect them against powdery mildew (Uncinulla necator). In total, five experiments were conducted, three with Carinian and two with Merlo.
The 3rd and the 4th leaf from top of a branch were detached, sprayed on lower leaf surface with a fungicide, three leaves per fungicide per concentration per cultivar, and placed lower surface uppermost on moist filter paper in a plastic tray (70×50×5 cm). Normally, one tray served for one cultivar and one fungicide and contained 27 leaves (21 leaves treated with 7 doses of a fungicide+6 control untreated leaves).
Trays with the sprayed leaves were placed in a ventilated hood for about one hour until the spray droplets dried off and thereafter were inoculated with the pathogen.
An isolate of P. viticola was propagated on detached leaves of Carinian by repeated inoculations. Sporangia were harvested from freshly sporulating leaves into ice-cold distilled water, their concentration adjusted to 1×10^5 sporangia/ml. Sporangial suspension was sprayed onto the lower surface of the treated and control leaves laying in the trays. Trays were thereafter wrapped with cellophane bags, kept at 15° C. in the dark for 20 h and then at 20° C. under 14 h light photoperiod. At 7-10 days after inoculation, disease development was recorded by visual estimation of the leaf area occupied with sporophores and spores of P. viticola.
Mean sporulating leaf area was then calculated for each treatment (n=3, n for control=6). A mean value was calculated for all four controls in an experiment. […]

With `O=C1c2ccccc2C(=O)N1SC(Cl)(Cl)Cl` [Folpet, folpet] the “ED90 observed Trial 1” value [1] was 254 mg/L, the “ED90 observed Trial 2” value [1] was 81 mg/L and the “ED90 observed Trial 1” value (Plasmopara viticola) was 65.8 mg/L. For the same molecule, the “ED90 observed Trial 2” value (Plasmopara viticola) was 30.6 mg/L, the “ED90 observed Trial 3” value (Plasmopara viticola) was 57.1 mg/L and the “ED90 observed Trial 4” value (Plasmopara viticola) was 61.8 mg/L. For the same molecule, the “ED90 observed Trial 5” value (Plasmopara viticola) was 39.8 mg/L.
For `CCO[PH](=O)O` [Fosetyl-Al, fosetyl-Al], the “ED90 observed Trial 1” value [1] was 2088 mg/L, the “ED90 observed Trial 2” value [1] was 508 mg/L and the “ED90 observed Trial 1” value (Plasmopara viticola) was 936 mg/L. For the same molecule, the “ED90 observed Trial 2” value (Plasmopara viticola) was 1522 mg/L, the “ED90 observed Trial 3” value (Plasmopara viticola) was 611 mg/L and the “ED90 observed Trial 4” value (Plasmopara viticola) was 274 mg/L. For the same molecule, the “ED90 observed Trial 5” value (Plasmopara viticola) was 297 mg/L.
For `COc1ccc(C(=CC(=O)N2CCOCC2)c2ccc(Cl)cc2)cc1OC` [Dimethomorph, dimethomorph], the “ED90 observed Trial 1” value [1] was 701 mg/L, the “ED90 observed Trial 2” value [1] was 424 mg/L and the “ED90 observed Trial 1” value (Plasmopara viticola) was 2.42 mg/L. The “ED90 observed Trial 2” value (Plasmopara viticola) was 1.81 mg/L, the “ED90 observed Trial 3” value (Plasmopara viticola) was 0.91 mg/L and the “ED90 observed Trial 4” value (Plasmopara viticola) was 3.95 mg/L. The “ED90 observed Trial 5” value (Plasmopara viticola) was 2.25 mg/L.
